Measurements from patent US20220202859A1, “CANCER TREATMENT USING CD38 INHIBITOR AND/OR LENALIDOMIDE AND T-CELLS EXPRESSING A CHIMERIC ANTIGEN RECEPTOR” (CRISPR THERAPEUTICS AG, priority 2020, published 2022).

Experiments:
[1] = test system: PBMCs; experiment: MLR assay (mixed lymphocyte reaction) with Lenalidomide; assay type: cell-based, human
Method: Next, allo-reactivity towards edited T cells (B2M^neg/TCR^neg) was tested using an MLR assay (mixed lymphocyte reaction). In this assay PBMCs (“responder cells”) were mixed with irradiated auto or allo T cells (“stimulator cells”). At the end of the assay, the activation of the responder cells was evaluated by measuring the cell proliferation in the co-culture, with cell proliferation serving as a proxy for immune activation. In the assay shown in FIG. 19C, both auto (donor 1) & allo (donor 2 & 3) were evaluated for immune activation following co-culture. […] As expected, immune activation was reduced upon deletion of B2M & TRAC from the T cells, as evident by the reduced proliferation in both donors tested.

[2] = test system: anti-BCMA CAR-T cells; experiment: Impact of Lenalidomide on editing efficiency and CD4/CD8 ratio of CAR-T cells; assay type: cell-based, human; conditions: day 8
Method: Editing efficiency, including TRAC−%, B2M−% and CAR+% were assessed at day 7/8 and/or day 13/14 with anti-BCMA CAR-T cells. […] Anti-BCMA CAR-T cells were not harvested around day 14 due to slower growth rate. About 51-58% of CAR+%, 96% TRAC−% and 75-77% of B2M−% were detected from anti-BCMA CAR-T cells with or without Lenalidomide treatment.
CD4% and CD8% were assessed at day 7/8 and/or day 13/14 with the anti-BCMA CAR-T cells disclosed above. […] The anti-BCMA CAR-T cells were not assessed and harvested around day 14 due to slower expansion. Compared with Lenalidomide untreated anti-BCMA CAR-T cells, there was dose-dependent increase of CD8 positive cells, ranging from 7-15%. […] Expansion scale (small or medium) didn't impact the CD4 and CD8 phonotype.

[3] = test system: NK cells; experiment: Cytokine secretion in co-culture of NK cells with K562 cells with Lenalidomide; assay type: cell-based, human
Method: (§1) Additionally, cytokine secretion was tested at the end of the co-culture described above, following co-culture of NK cells with B2M^neg T cells, K562 cells (a B2M^neg cell line, commonly used as a positive control for activation of NK cells due to lack of B2M expression), and unedited T cells (used as a negative control for NK cells activation).

[4] = lenalidomide-treated subjects; prescribing information; cited from earlier work
[5] = test system: anti-BCMA CAR-T cells; experiment: Lenalidomide on cytokine secretion of anti-BCMA CAR-T cells co-cultured with JeKo-1; assay type: cell-based, human; conditions: overnight culture with JeKo-1, 2:1 effector to target; all concentrations tested
From the text: Addition of Lenalidomide to the co-culture media led to enhanced cytokine secretion of multiple effector cytokines, among them IFN-γ and TNF-α following CAR-T cell engagement by the BCMA expressing target cell line (FIG. 1C).

[6] = test system: NK cells; experiment: Cytokine secretion in co-culture of NK cells with B2Mneg T cells with Lenalidomide; assay type: cell-based, human
Method: as §1

[7] = test system: MM.1S tumors; experiment: Lenalidomide plus anti-BCMA CAR-T cells in MM.1S subcutaneous tumor model; conditions: single arm: 3 million CAR-T cells, or Lenalidomide 1.5 or 10 mg/kg
[8] = test system: anti-BCMA CAR-T cells; experiment: Cytokine secretion of CAR-T cells produced in the presence of Lenalidomide, co-culture with JeKo-1; assay type: cell-based, human; conditions: Lenalidomide 0.5, 2 & 10 uM during ~10 day production; JeKo-1 at 0.5:1 effector to target, no Lenalidomide in assay
Method: PBMCs were thawed and activated by T cell activation agents to enrich for T cells. After 3 days, T cells were edited for B2M and TRAC knock-out using a CRISPR/Cas gene editing system. An anti-BCMA expression cassette (as an exemplary CAR construct) was knocked into the TRAC locus to produce anti-BCMA CAR-T cells. Following the editing procedure, resulting T cells were expanded in the presence of absence of Lenalidomide in a concentration of 0.5, 2, & 10 uM for approximately 10 days. The resulting cells were later evaluated for cytokine secretion following antigen stimulation, in the absence of Lenalidomide.
The inclusion of Lenalidomide […] led to enhanced cytokine secretion of multiple effector cytokines, among them IFN-γ and TNF-α, upon CAR-T engagement by the BCMA expressing target cell line (FIG. 20).

[9] = test system: anti-BCMA CAR-T cells; experiment: Lenalidomide on in vitro expansion and senescence (CD57) of anti-BCMA CAR-T cells
[10] = test system: NK cells; experiment: NK cytotoxicity towards B2Mneg T cells with Lenalidomide; assay type: cell-based, human; conditions: overnight co-culture; wide range of Lenalidomide concentrations
Method: Two modes of allogenic immune recognition were tested: immune recognition of B2M^neg cells by NK cells, and immune recognition by allogenic T cells. Examination of the cytotoxic activity of NK cells towards B2M^neg cells was tested following overnight (ON) co-culture in varying concentrations of NK to T cells, and varying concentrations of Lenalidomide. Increasing concentration of NK to B2M^neg T cells led to an increase in the cytotoxic activity of NK cells towards B2M^neg T cells.

[11] = target: T1, biotinylated recombinant human BCMA (Acro Biosystems Cat: #BC7-H82F0) (human, UniProt Q02223 1-54, biotinylated); experiment: flow cytometry of CTX120 cells, detection of the surface CAR with biotinylated BCMA and fluorescent streptavidin
T1 construct: Bought reagent
T1 sequence (looked up): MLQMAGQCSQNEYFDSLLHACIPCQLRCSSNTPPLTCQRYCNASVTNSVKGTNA

[12] = target: T2, mouse BCMA (mouse, UniProt O88472 1-49, limits assumed); experiment: not described (statement in Example 5)
T2 construct: also called murine BCMA
T2 chain (looked up): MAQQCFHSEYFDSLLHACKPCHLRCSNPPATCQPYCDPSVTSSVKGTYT

Nc1cccc2c1CN(C1CCC(=O)NC1=O)C2=O (stereo not shown) [Lenalidomide]
proliferation upon allo co-culture with edited T cells ([1]; edited (B2Mneg/TCRneg) stimulator T cells): minimal changes upon addition of Lenalidomide to the co-culture
allo reactivity towards unedited T cells ([1]; unedited stimulator T cells, donor 2): may in some cases enhance allo reactivity towards unedited T cells
overall distribution of CD4 and CD8 cells [2]: not significantly altered
dose-dependent increase of CD8 positive cells ([2]; compared with Lenalidomide untreated cells): 7-15%
cytokine secretion [3]: Upregulation of secretion of several cytokines
grade 3 or 4 neutropenia [4]: up to 59%
grade 3 or 4 thrombocytopenia [4]: up to 38%
effector cytokine secretion upon antigen stimulation [5]: enhanced effector cytokine secretion upon antigen stimulation
cytokine secretion [6]: minimal changes were observed upon addition of Lenalidomide
effect on tumor regression and mouse survival compared to no treatment arm [7]: minimal effect on both tumor regression and mouse survival
effector cytokine secretion upon antigen stimulation [8]: enhance effector cytokine secretion upon antigen stimulation
higher expansion of anti-BCMA CAR-T cells ([9]; 0.5 uM to 10 uM Lenalidomide): 5-30 fold
senescence marker CD57 expression ([9]; all tested concentrations, 10 day culture): reduced expression of CD57
NK cell killing of B2Mneg T cells [10]: did not lead to an increased cell killing of the B2M^neg T cells

B1: anti-BCMA CAR (CTX-166b) expressed on CTX120 cells (other)
chain: QVQLVQSGAELKKPGASVKVSCKASGNTLTNYVIHWVRQAPGQRLEWMGYILPYNDLTKYSQKFQGRVTITRDKSASTAYMELSSLRSEDTAVYYCTRWDWDGFFDPWGQGTTVTVSSGGGGSGGGGSGGGGSEIVMTQSPATLSVSPGERASISCRASQSLVHSNGNTHLHWYQQRPGQAPRLLIYSVSNRFSEVPARFSGSGSGTDFTLTISSVESEDFAVYYCSQTSHIPYTFGGGTKLEIKSAAAFVPVFLPAKPTTTPAPRPPTPAPTIASQPLSLRPEACRPAAGGAVHTRGLDFACDIYIWAPLAGTCGVLLLSLVITLYCNHRNRKRGRKKLLYIFKQPFMRPVQTTQEEDGCSCRFPEEEEGGCELRVKFSRSADAPAYQQGQNQLYNELNLGRREEYDVLDKRRGRDPEMGGKPRRKNPQEGLYNELQKDKMAEAYSEIGMKGERRRGKGHDGLYQGLSTATKDTYDALHMQALPPR
notes: also called CTX120 anti-BCMA CAR; CTX120 CAR
binding result [11]: binds
binding result [12]: no binding
